# Test results from US20150080380A1, “Therapeutic Uses” (GLAXOSMITHKLINE INTELLECTUAL PROPERTY DEVELOPMENT LIMITED, priority 2012, published 2015).
# Where two headings read alike, the source gives them in different places.
# How the values were obtained:
# [1] = system: OPC differentiation; assay: Oligodendrocyte precursor cell (OPC) differentiation assay (MBP immunocytochemistry); format: cell-based, rat; conditions: for EC50: Rattus norvegicus, Oligodendrocyte precursor cell
# Method: The effects of small-molecule inverse agonists and neutral antagonists of histamine receptor 3 (H3R) on OPC differentiation were determined using the following assay.
# The enriched OPC were obtained from dissecting 2-d-old rat pups forebrain. The pups were anesthetized and decapitated. Then the skull was cut with microdissecting scissors and the cortex was taken out with Dumont forceps. The meninges were removed with fine tips. After repeated trituration of the cortex through cell strainer, cells were re-suspended with the culture media consisted of DMEM supplemented with 20% Fetal bovine serum (Invitrogen, Carlsbad, Calif.), glutamine (4 mM, (Invitrogen), and plated onto poly-D-lysine (PDL, […] for 1 h, Sigma, St. Louis, Mo.)-coated T75 flasks. The resulting cultures were fed with fresh culture media twice per week and almost all the neurons will die due to the high concentration of serum in one week. Then the mixed glial cells were subjected to a series shake-off procedure to obtain pure OPCs two weeks later. Specifically, the mixed glial cells were shaken initially for 1 hour at 100 rpm to remove microglia and shaken for 20-22 hours at 37° C. at 200 rpm to enrich OPCs. OPCs were collected by centrifugation at 1200 rpm for 5 min, re-suspended in basal chemically defined medium (BDM). BDM consisted of DMEM supplemented with N2 medium (100×, Invitrogen), glutamine (4 mM, Invitrogen), BSA (0.1 mg/ml, Sigma), hydrocortisone (20 nM, Sigma), selenium (30 nM, Sigma) and biotin (10 nM, Sigma). OPCs were plated on poly-ornithine (PO, 50 μg/ml for 1 hr, Sigma)-coated culture dishes and maintained in BDM supplemented with bFGF (10 ng/ml, Invitrogen) and PDGF (10 ng/ml, PeproTech, Rocky Hill, N.J.) before experimental manipulation. OPCs were 95% pure judged by A2B5+ staining.
# To initiate OPC differentiation, OPCs were firstly treated with 0.05% Trypsin/EDTA, and seeded into PO-coated 384-mini well plate at a density of 2,000 to 5,000 cells/well. Each test compound was dissolved in DMSO at the concentration of 10 mM for the assay. Compounds at different concentrations (full dose curve, 0.3 nM-10 uM) were added into the OPC culture in duplicates with Echo machine (Thermo, Waltham, Mass.). OPCs were cultured in BDM supplemented with N-acetyl-L-cystenine (30 μM, Sigma) to differentiate into mature oligodendrocytes for 4 days. BDM comprise DMEM (Invitrogen), N2 (100×, Invitrogen), L-Glu (50×, Invitrogen), Sodium Pyruvate (100×, Invitrogen), BSA (0.1%, Sigma), Biotin (10 nM, Sigma), hydrocortisone (10 nM, Sigma). The resulting cultures were fixed with 4% polyformaldehyde (Sigma) and samples were blocked with the blocking buffer (Donkey Serum 3%, Sigma; Triton X-100 0.04%, Sigma). Then fixed cells were incubated in primary antibodies (anti-myelin basic protein, MBP antibody, 600× dilution in blocking buffer) overnight at 4° C., washed thoroughly with PBS and then incubated with Alexa 488-labeled secondary antibody (Molecular Probes, Invitrogen) for 2 h at R.T; then washed thoroughly with PBS and stained with Dapi (1 ug/ml, Sigma),
# The full-plate immunocytochemistry staining was read by an automatic image-based analysis system-Cellomics (Thermo) and the raw data for each well was acquired as percentage of MBP+ population as follows: Pictures of eight fields per well were captured and analyzed quantitatively; the well data is the average of 8 fields. The intensity of anti-MBP staining in the cytosol was used as the criteria of positive objects. The threshold of positive objects was set based on the average intensity of the positive control well, for which triiodothyronine (15 nM) was used. Then the data was analyzed and presented as fold change of the number of the vehicle control well. Graphs were generated by softwares: Microsoft Excel and IDBS XL fits. The curve fitting was performed with software XL fits to derive EC50 of the positive compounds.
# All data except FIG. 1 are given as mean±standard error of the mean (SEM). […]
# [2] = system: MAG and MBP expression in OPCs; assay: Western blot of mature oligodendrocyte markers in differentiating OPCs; format: cell-based, rat; conditions: differentiating oligodendrocytes after treatment
# Method: The antibodies used for immunoblot and immunocytochemistry experiments were rabbit anti-myelin basic protein (MBP, Millipore, Billerica, Mass.), mouse anti-myelin-associated glycoprotein (MAG, abcam, Cambridge, Mass.).
# After treatments, OPCs were washed twice with ice-cold PBS and total cell lysates were harvested in RIPA lysis buffer (50 mM Tris-HCl, pH 7.5, 1 mM EDTA, 1 mM EGTA, 1 mM sodium orthovanadate, 50 mM sodium fluoride, 0.1% 2-mercaptoethanol, 1% triton X-100 and proteases inhibitor cocktail). The lysates were briefly sonicated and stored at −80° C. before Western analysis. The BCA Protein Assay Reagent (PIERCE, Thermo) was performed to determine protein concentration. 15 μg of total protein per sample was aliquoted, boiled for 5 min after being mixed with 2×SDS buffer (125 mM Tris-HCl, 4% SDS, 20% glycerol, 100 mM DTT) and separated by SDS-PAGE on Bis-Tris mini-gels (Invitrogen). Separated proteins were then transferred to nitrocellulose membranes and blocked in 5% milk/TBS-0.1% Tween for 1 h at room temperature. Membranes were then incubated in the presence of primary antibodies diluted in 5% milk/TBS-0.1% Tween overnight at 4° C. The following day, membranes were washed 3 times for 5 min with TBS-0.1% Tween and incubated for 1 h at room temperature in 5% milk/TBS-0.1%. […]
compound,measurement,setting,value
"c1cc2c(cc1-c1noc(CC3CCN(C4CCC4)CC3)n1)OCO2 [Example compound 2, 3-(benzo[d][1,3]dioxol-5-yl)-5-((1-cyclobutylpiperidin-4-yl)methyl)-1,2,4-oxadiazole]",EC50,"[1]; 96 h, 0.3 nM-10 uM, 4 days, FIG. 1, read-out: EC50, promotion of OPC differentiation (MBP+ population)",25 nM
same,expression levels of MAG and MBP (western blot),[2],significant increase
"O=C1CCCN1c1ccc(Oc2ccc3c(c2)CCN(C2CCC2)CC3)nc1 [Example compound 1, 1-{6-[(3-cyclobutyl-2,3,4,5-tetrahydro-1H-3-benzazepin-7-yl)oxy]-3-pyridinyl}-2-pyrrolidinone]",EC50,"[1]; five experiments (n=5), FIG. 3b, read-out: EC50, promotion of OPC differentiation",159 ± 57 nM
same,EC50,"[1]; two experiments (n=2), FIG. 3a, read-out: EC50, promotion of OPC differentiation",118 ± 49 nM
same,MBP-positive cells,"[1]; at 3 uM, n=5, FIG. 3b",up to 1.8±0.1 folds of control
same,expression levels of MAG and MBP (western blot),[2],increased expression levels
